Reference: patent publication US12385042B2, “Cell-penetrating peptides” (VECTIOPEP OÜ, priority 2019, dated 2025)
“Also recorded” adds a separate entry of the source. Like-named read-outs stand apart in the source and are kept apart here. Where a SMILES comes first, the peptide text is derived from it. Bridges are numbered along the chain shown (N, C = ends). Roman numbers before positions name the chains, in order. [ ]: non-standard residue; d: D form. The star is where a group is joined. Arachidoyl = CCCCCCCCCCCCCCCCCCCC(=O)*; Stearoyl = CCCCCCCCCCCCCCCCCC(=O)*; Orn = NCCC[C@H](N)C(=O)O

Tests used:
[1] = tested on: murine red blood cells; assay: Membrane activity assay on murine red blood cells: hemolysis; type: cell-based, mouse; conditions: for HC50 CPP/siRNA complex (peptide concentration): CPP/siRNA complexes at MR30; for HC50 Free peptide: pH 7.5
Protocol: For evaluation of membrane activity of peptides, hemolysis assay was used. For this whole blood was collected from mouse (adult, BALB/c) saphenous vein into a heparinized collection tube. Blood was centrifuged (2300× g, 15 min) to separate cells (red blood cells-RBC) from the plasma. RBCs were washed according to following procedures.
RBCs were washed with 10 ml 0.9% NaCl saline and centrifuged (600× g, 15 min). Supernatant was discarded after each centrifugation. This was repeated at least 3 times. RBCs were re-suspended in 5 ml saline and distributed equally to tubes and centrifuged (600× g, 15 min). The cells were washed and re-suspended in 2× PBS with the required pH (pH 5.5-7.5). The hemoglobin content in stocks was measured after lysis of cells with equal volume of 0.1% Triton X100 supplemented with 5% glucose. The cell suspension was diluted accordingly for each pH value to obtain similar concentration range of hemoglobin in stocks. To each 100 ul of peptide solution 100 ul of 10% glucose was added, mixed, and equal volume (200 ul) of RBC in 2× PBS were added and gently mixed. Peptide solution with RBCs was incubated at 37° C. for 1 h with gentle mixing (max 300 rpm) after which samples were centrifuged to pellet intact cells from the solution. Hemoglobin from lysed cells was determined from each sample from the supernatant on transparent 96-well plates by measuring the absorbance at 540 nm.
Controls were incubated in similar manner as samples. As a non-hemolysis control mQ supplemented with glucose (0%) was used and for hemolytic control 0.1% TritonX-100 with glucose (100%) was used (cells are suspended in 2× PBS before addition). Final percent was calculated as follows: […]
For hemolytic concentration determination 2× PBS at pH 7.5 was used for incubation and 1× PBS at pH 7.5 was used for washing. Everything else is as described in previous paragraph.

[2] = tested on: CHO stably expressing green fluorescent protein (GFP); assay: GFP gene downregulation by CPP/siGFP complexes (lysate fluorescence, FACS, confocal); type: cell-based; conditions: for GFP signal in confocal images: live cells treated with CPP/siGFP complexes
In short: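 CHO-GFP cells (5×10^5/well) in serum-containing medium exposed 4 h at 37 °C to CPP/siGFP complexes (peptide:siRNA molar ratio 40:1, siRNA 100 nM final), then 44 h further culture. GFP read as protein-normalized lysate fluorescence, by FACS (fraction below 0.1% untreated-cell signal), or by confocal imaging after 48 h.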

[3] = Fluorescent dye (PicoGreen) intercalation and heparin displacement assay of CPP/siRNA complexes; type: physicochemical; conditions: for accessibility of siRNA in complexes (dye intercalation): MR30, no heparin
In short: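 PicoGreen fluorescence (ex 492/em 535 nm) of CPP/siRNA complexes in water after 5 min with dye, reporting siRNA accessibility. In the displacement arm, complexes were first incubated with heparin at varying concentrations for 30 min at 37 °C before adding PicoGreen.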

[4] = tested on: U87 MG-luc2 human glioma cells, stably expressing luc2; assay: Luciferase gene downregulation by CPP/siRNA (siLuc2) complexes; type: cell-based; conditions: for luciferase downregulation efficiency (in words) / Red (%) (reduction, based on remaining luminescence on U87 cells post-treatment): CPP/siRNA complexes; for luciferase downregulation efficiency (in words): comparison between CPPs; for Red (%) (reduction, based on remaining luminescence on U87 cells post-treatment): siRNA against luciferase; for IC50: read-out: IC50 (siRNA concentration), luciferase downregulation; for remaining reporter activity: molar ratio 30 (MR30, peptide to siRNA), untreated cells 100%
In short: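 U87-luc2 cells in serum-containing medium got peptide/siLuc2 complexes formed in water (pH 5.3-6.3, MR 40:1, 1 h RT) at 25 nM siRNA for 4 h at 37 °C, then 20 h more. Lysate luminescence normalized to protein; in other runs, MR30/10 nM in HEPES-FBS, or varied MR at 50 nM, vs untreated (100%).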

[5] = complexes formed at MR30, average

Row | SMILES | hemolytic concentration, fold higher than NF71 [1] | HC50 CPP/siRNA complex (peptide concentration) [1] | HC50 times higher than that of NF55 ([1]; free peptide) | HC50 Free peptide ([1]; free peptide) | pH dependent hemolytic activity (in words) ([1]; peptide 0.75 uM, buffer pH 5.5-7.5) | GFP signal in confocal images [2] | accessibility of siRNA in complexes (dye intercalation) [3] | luciferase downregulation efficiency (in words) ([4]; listed as H6-C20) | Red (%) (reduction, based on remaining luminescence on U87 cells post-treatment) [4] | downregulation of luciferase activity ([4]; H6 series, effect of fatty acid length) | IC50 ([4]; complexes formed at MR30, average, listed as H6-C20) | IC50 [4, 5] | IC50 ([4]; complexes formed at MR30 and MR40, similar average value) | remaining reporter activity [4] | hemolytic activity of free peptide (in words) ([1]; free peptide, up to 10 uM) | downregulation of GFP (average, cell lysate fluorescence) ([2]; siGFP 100 nM) | siRNA accessible ([3]; 0.5 mg/ml heparin, complexes pre-formed at MR30) | stability of complexes to heparin displacement (in words) ([3]; complexes pre-formed at MR30) | luciferase downregulation efficiency (in words) [4] | IC50 ([4]; complexes formed at MR20)
1 | CCCCCCCCCCCCCCCCCCCC(=O)N[C@@H](Cc1c[nH]cn1)C(=O)N[C@@H](Cc1c[nH]cn1)C(=O)N[C@@H](Cc1c[nH]cn1)C(=O)N[C@@H](Cc1c[nH]cn1)C(=O)N[C@@H](Cc1ccc(O)cc1)C(=O)N[C@@H](Cc1c[nH]cn1)C(=O)N[C@@H](Cc1c[nH]cn1)C(=O)NCC(=O)NCCC[C@H](N)C(=O)N[C@H](C(=O)N[C@@H](CC(C)C)C(=O)N[C@@H](CC(C)C)C(=O)N[C@@H](CCCCN)C(=O)N[C@@H](C)C(=O)N[C@@H](CC(C)C)C(=O)N[C@@H](CCCCN)C(=O)N[C@@H](C)C(=O)N[C@@H](CC(C)C)C(=O)N[C@@H](C)C(=O)N[C@@H](CCCCN)C(=O)N[C@@H](C)C(=O)N[C@H](C(=O)N[C@@H](CC(C)C)C(N)=O)[C@@H](C)CC)[C@@H](C)CC [NF70] (I: H-[Orn]ILLKALKALAKAIL-NH2 / II: Arachidoyl-HHHHYHHG; amide I:1-II:C) | 3.6 | 8.3 µM | 2.5 times | 4.3 µM | the increase was less substantial | detected GFP signal was the lowest | low accessibility of siRNA | equally strong downregulation of the luciferase gene; also recorded: at MR40 it was even more efficient than PF6 or H4-C18 | 92% | up to 95% | 14.7 nM | 14.8 nM | 14.7 to 14.8 nM | 15% |  |  |  |  |  | 
2 | CCCCCCCCCCCCCCCCCC(=O)N[C@@H](Cc1c[nH]cn1)C(=O)N[C@@H](Cc1c[nH]cn1)C(=O)N[C@@H](Cc1ccc(O)cc1)C(=O)N[C@@H](Cc1c[nH]cn1)C(=O)N[C@@H](Cc1c[nH]cn1)C(=O)NCC(=O)NCCC[C@H](N)C(=O)N[C@H](C(=O)N[C@@H](CC(C)C)C(=O)N[C@@H](CC(C)C)C(=O)N[C@@H](CCCCN)C(=O)N[C@@H](C)C(=O)N[C@@H](CC(C)C)C(=O)N[C@@H](CCCCN)C(=O)N[C@@H](C)C(=O)N[C@@H](CC(C)C)C(=O)N[C@@H](C)C(=O)N[C@@H](CCCCN)C(=O)N[C@@H](C)C(=O)N[C@H](C(=O)N[C@@H](CC(C)C)C(N)=O)[C@@H](C)CC)[C@@H](C)CC [NF71] (I: H-[Orn]ILLKALKALAKAIL-NH2 / II: Stearoyl-HHYHHG; amide I:1-II:C) |  | 2.5 µM |  | 1.2 µM |  | detected GFP signal was the lowest | low accessibility of siRNA |  | 88% |  |  | 6.8 nM |  | 13% | more hemolytic than its parent peptide NF55 | lower than with H6^1-C20 or H8-C20 | 17% | less resistant to heparin displacement than NF55/siRNA | most efficient peptides even at low MRs | 11.1 nM
